Experimental data as given in BigSolDB 2.1.

O=C1CCC(c2ccccc2)=NN1
solubility (mole fraction)
Details | in DMSO | in ethanol | in ethyl acetate | in ethylene glycol | in isopropanol | in n-butanol | in propylene glycol | in sec-butanol | in transcutol | in water
293.2 K | 0.637 | 0.00407 | 0.00878 | 0.0074 | 0.0031 | 0.00474 | 0.00654 | 0.00512 | 0.423 | 7.24e-07
298.2 K | 0.647 | 0.00466 | 0.00994 | 0.00836 | 0.00378 | 0.0053 | 0.00732 | 0.00555 | 0.451 | 9.18e-07
303.2 K | 0.658 | 0.00529 | 0.0111 | 0.00921 | 0.0046 | 0.00601 | 0.00846 | 0.00618 | 0.476 | 1.13e-06
308.2 K | 0.668 | 0.00607 | 0.0128 | 0.0101 | 0.00555 | 0.0067 | 0.00951 | 0.00687 | 0.502 | 1.37e-06
313.2 K | 0.677 | 0.00696 | 0.0145 | 0.0109 | 0.00651 | 0.00768 | 0.0103 | 0.00778 | 0.524 | 1.61e-06

Details | solubility (mole fraction)
in PEG-400, 293.2 K | 0.0585
in PEG-400, 298.2 K | 0.0646
in PEG-400, 303.2 K | 0.0709
in PEG-400, 308.2 K | 0.078
in PEG-400, 313.2 K | 0.0847
